Laboratory results taken from US20060160701A1, “Natural herbicidal agent containing momilactones A and B identified in and isolated from rice hulls” (Konkuk University Industrial Cooperation Corp., priority 2005, published 2006).

Tests used:
lettuce seeds = conditions: derivatives of momilactones A and B; Kato et al., Phytochemistry 16, 1977; cited from earlier work
rice roots = conditions: derivatives of momilactones A and B; Kato et al., Phytochemistry 16, 1977; cited from earlier work
[1] = system: duckweed (Lemna paucicostata Hegelm 381); experiment: Bioactivity assay using duckweed (Lemna assay); format: in vivo; conditions: 5 days; for Visual injury symptoms (%): scale 0 (no effect) to 100 (complete death)
Protocol: (§1) The momilactones thus isolated and purified according to the method were dissolved in acetone containing a non-ionic surfactant, Tween-20, and diluted with ½ hunter medium, thus generating a growth/germination inhibition solution. The solution contained acetone and Tween-20 in final concentrations of 1% and 0.01% by weight, respectively. The acetone and Tween-20 were found not to cause growth or germination inhibition.
After 2 ml of the growth/germination inhibition solution, prepared in Example, was aliquotted in triplets into a 24-well plate, one duckweed plant having four fronds was transplanted into each well. The plate was incubated in a growth chamber (26° C., 14 h photoperiod, 50 μmol/m^2s) for 5 days. Herbicidal activity was determined by visual scoring and by measuring the chlorophyll content.
The chlorophyll was extracted in DMSO (dimethyl sulfoxide), and absorbance was measured using a UV-VIS spectrophotometer. The chlorophyll content was determined based on the absorbance data according to a method described by Hiscox and Israelstam (Hiscox, J. D. and Israelstam, G. F., Can. J. Bot., 57, 1332-1334, 1979).
The inhibitory effects of the compounds on chlorophyll content in duckweed were expressed as a percentage (%) of the corresponding values obtained for a control.
Thus, a minus value indicates growth stimulation, and a plus value indicates growth inhibition. • Chlorophyll content (μg/ml)=2.367×(absorbance)^2+6.299×absorbance+0.169 (r=0.999) • Inhibition of chlorophyll content (%)=[(control-test group)/control]×100

[2] = system: Amaranthus retroflexus L.; experiment: Germination assay in culture tube (GACT), Amaranthus retroflexus seeds; format: in vivo; conditions: III: Amaranthus retroflexus L., seven days
Protocol: as §1
(§2) Seeds of three weed species, Leptochloa chinensis L., Amaranthus retroflexus L. and Cyperus difformis L., which were collected on October 2002 and stored at −35° C. after floating matter was removed using distilled water, were used in this test.
(§3) The weed seeds were surface-sterilized in a 1:10 (v/v) dilution of an aqueous hypochlorite solution for 10 min and washed with distilled water several times according to a method described by Choi et al. (CHOI, J. S. et al., Korean J. Weed Sci., 22, 339-413, 2002).
(§4) 650 mg of sea sand was placed into disposable culture tubes (12×75 mm), which contained the growth/germination inhibition solution at concentrations of 4, 20, 100 and 1000 ppm. 2 mg of each seed of the three weed species was added to the tubes, and was then incubated in a growth chamber (25° C., 12 h photoperiod, 20 μmol/m^2s).
(§5) After seven days, percentage germination of the weed seeds was determined. Using the percentage germination, the inhibitory effects of the growth/germination inhibition solution on germination and fresh weight of the seeds were evaluated. • Germination inhibition (%)=[(control−test group)/control]×100 • Fresh weight inhibition (%)=[(control−test group)/control]×100

Cyperus difformis L. = experiment: Germination assay in culture tube (GACT), Cyperus difformis seeds; format: in vivo; conditions: I: Cyperus difformis L., seven days
Protocol: as §1, §2, §3, §4, §5

[3] = system: Leptochloa chinensis (L.) Ness; experiment: Germination assay in culture tube (GACT), Leptochloa chinensis seeds; format: in vivo; conditions: II: Leptochloa chinensis (L.) Ness, seven days
Protocol: as §1, §2, §3, §4, §5

[4] = system: three weed species, Leptochloa chinensis L., Amaranthus retroflexus L. and Cyperus difformis L.; experiment: Germination assay in culture tube (GACT), three weed species taken together; format: in vivo; conditions: 20 ppm
Protocol: as §1, §2
The weed seeds were surface-sterilized in a 1:10 (v/v) dilution of an aqueous hypochlorite solution for 10 min and washed with distilled water several times according to a method described by Choi et al. (CHOI, J. S. et al., Korean J. Weed Sci., 22, 339-413, 2002). […]
as §5

rice seedlings = conditions: Kato-Naguchi et al., Physiologia Plantarum 115, 2002; cited from earlier work

## 3-hydro momilactone A
Lettuce seeds
  inhibition of the germination of lettuce seeds: strongest inhibitory activity
Rice roots
  inhibition of the growth of rice roots: strongest inhibitory activity

## C=C[C@]1(C)CC[C@@H]2C(=C[C@H]3OC(=O)[C@@]4(C)C(=O)CC[C@@]2(C)[C@@H]34)C1 [Momilactone A]
[1]; 1 ppm
  Inhibition of chlorophyll content (%): 27.0%
  Visual injury symptoms (%): 20%
[1]; 3.3 ppm
  Inhibition of chlorophyll content (%): 52.3%
  Visual injury symptoms (%): 50%
[1]; 10 ppm
  Inhibition of chlorophyll content (%): 85.8%
  Visual injury symptoms (%): 70%
[1]; 33 ppm
  Inhibition of chlorophyll content (%): 95.6%
  Visual injury symptoms (%): 90%
[1]; 100 ppm
  Inhibition of chlorophyll content (%): 98.9%
  Visual injury symptoms (%): 95%
[2]; 4 ppm
  Fresh weight inhibition (%): 0%
  Germination inhibition (%): 20%
[2]; 20 ppm
  Fresh weight inhibition (%): 18.6%
  Germination inhibition (%): 20%
[2]; 100 ppm
  Fresh weight inhibition (%): 33.3%
  Germination inhibition (%): 30%
[2]; 1000 ppm
  Fresh weight inhibition (%): 100%
  Germination inhibition (%): 100%
Cyperus difformis L.; 4 ppm
  Fresh weight inhibition (%): 0%
  Germination inhibition (%): 20%
Cyperus difformis L.; 20 ppm
  Fresh weight inhibition (%): 100%
  Germination inhibition (%): 97.5%
Cyperus difformis L.; 100 ppm
  Fresh weight inhibition (%): 100%
  Germination inhibition (%): 100%
Cyperus difformis L.; 1000 ppm
  Fresh weight inhibition (%): 100%
  Germination inhibition (%): 100%
[3]; 4 ppm
  Fresh weight inhibition (%): 0%
  Germination inhibition (%): 0%
[3]; 20 ppm
  Fresh weight inhibition (%): 0%
  Germination inhibition (%): 0%
[3]; 100 ppm
  Fresh weight inhibition (%): 48.4%
  Germination inhibition (%): 70%
[3]; 1000 ppm
  Fresh weight inhibition (%): 100%
  Germination inhibition (%): 100%

## C=C[C@]1(C)CC[C@@H]2C(=C[C@H]3OC(=O)[C@]4(C)[C@H]3[C@]23CC[C@@]4(O)OC3)C1 [Momilactone B]
[1]; 1 ppm
  Inhibition of chlorophyll content (%): 33.9%
  Visual injury symptoms (%): 20%
[1]; 3.3 ppm
  Inhibition of chlorophyll content (%): 91.9%
  Visual injury symptoms (%): 70%
[1]; 10 ppm
  Inhibition of chlorophyll content (%): 98.3%
  Visual injury symptoms (%): 98%
[1]; 33 ppm
  Inhibition of chlorophyll content (%): 100%
  Visual injury symptoms (%): 100%
[1]; 33 ppm, listed as momilactone B
  Visual injury symptoms (%): complete death
[1]; 100 ppm
  Inhibition of chlorophyll content (%): 100%
  Visual injury symptoms (%): 100%
[1]; 100 ppm, listed as momilactone B
  Visual injury symptoms (%): complete death
[2]; 4 ppm
  Fresh weight inhibition (%): 12.5%
  Germination inhibition (%): 15%
[2]; 20 ppm
  Fresh weight inhibition (%): 100%
  Germination inhibition (%): 100%
[2]; 100 ppm
  Fresh weight inhibition (%): 100%
  Germination inhibition (%): 100%
[2]; 1000 ppm
  Fresh weight inhibition (%): 100%
  Germination inhibition (%): 100%
Cyperus difformis L.; 4 ppm
  Fresh weight inhibition (%): 15%
  Germination inhibition (%): 23.3%
Cyperus difformis L.; 20 ppm
  Fresh weight inhibition (%): 100%
  Germination inhibition (%): 100%
Cyperus difformis L.; 100 ppm
  Fresh weight inhibition (%): 100%
  Germination inhibition (%): 100%
Cyperus difformis L.; 1000 ppm
  Fresh weight inhibition (%): 100%
  Germination inhibition (%): 100%
[4]
  inhibition of germination of all tested weed species: completely inhibited
  inhibition of growth of all tested weed species: completely inhibited
Rice seedlings
  inhibition of the growth of rice seedlings: inhibiting the growth of rice seedlings
[3]; 4 ppm
  Fresh weight inhibition (%): 23.3%
  Germination inhibition (%): 100%
[3]; 20 ppm
  Fresh weight inhibition (%): 100%
  Germination inhibition (%): 100%
[3]; 100 ppm
  Fresh weight inhibition (%): 100%
  Germination inhibition (%): 100%
[3]; 1000 ppm
  Fresh weight inhibition (%): 100%
  Germination inhibition (%): 100%

## acetyl momilactone B
Lettuce seeds
  inhibition of the germination of lettuce seeds: strongest inhibitory activity
Rice roots
  inhibition of the growth of rice roots: strongest inhibitory activity
